Patent US8318954B2, “Cleavable carnitine compound” (Nou Life Sciences, Inc., priority 2006, dated 2012)

Key:
Format in all cases: in vivo
C. elegans [1] = assay: Thermal avoidance (TAV) 3 step dose response testing; conditions: for effects indicating increased sensory sensitivity: 0%, 6%, 12% laser intensity
Description: The present invention includes a series of compounds that may be useful for increasing sensory neuron function in certain human neuropathological conditions. C. elegans contains a number of sensory neurons which are responsible for detecting a variety of external stimuli. One such stimulus (heat) can be detected and quantified in C. elegans by the use of thermal avoidance (TAV) technology available through NemaRx. The goal of this experiment was to provide an initial characterization of the compounds via TAV. Specifically, it was asked whether any of these compounds can lead to an increase in the thermal stimulus-induced behavioral response measured by TAV. N2 strain C. elegans animals were used for this project, which have ‘normal’, i.e. wildtype, sensory neuron function. Four compounds were received by NemaRx for TAV testing. These compounds were:
(§1) One 24 well microtiter plate was set up and incubated overnight on the shaker at 20 C. Each well on the plate was set up with 600 L3/L4-stage N2 animals in NGM with a 1:20 dilution of concentrated HB101 E. coli (food source) in a volume of 300 μl. Before the animal/HB101 solution was added, test compounds were pipetted into wells. For water controls and compound stocks/dilutions in water (DHLA, NAC) 6 μl was added to each well (1:50 dilutions). For DMSO controls and compound stocks/dilutions in DMSO (LA) 3 μl was added to each well (1:100 dilutions). No OD620 measurements were taken but the animals were visually scored after 19 h incubation.
Dose Responses—setup: All of the wells from the 24 well plate were used for dose response testing and the entire well contents (600 animals) were used for each test. Prior to being placed on the agar plate for TAV testing each sample was processed as follows: • sample were transferred to glass tube containing 7 ml PBS • animals were allowed to settle for 5 minutes before most of the supernatant was removed (approx. 0.5 ml remaining in tube) • 7 ml PBS was then added, mixed and animals were allowed to settle for 5 minutes most of the supernatant was then removed • animals were removed and transferred to TAV testing plate (NRx Application pattern A) • plate was allowed to dry for 10 minutes (plate cover removed) and TAV testing was initiated. Per plate settings for the dose response experiments were as follows:
Dose Responses—general notes on analysis: A response of the animals to a thermal stimulus (laser) which is applied to the head region can be detected both by a change in the direction of movement, as well as by a change in speed occurring within the test interval where the stimulus is applied. • direction of movement. […] Animals that show a strong change in the direction of movement, i.e. reversals, are classified as LR5 responders. […] LR5 responders show a thermal intensity-dependent increase in the speed of movement (starting off with less than <prelaser speed at low intensities up to > pre-laser speed at high intensities)
The dose response experiments for the current project were carried out with 0% (background control), 6% and 12% settings of laser intensity. In practice, 6% is on the edge of laser intensity required to detect an increase in the number of LR5 responders. As such, 6% should be a useful intensity-setting to detect compound-induced increased sensitivity in the animals. The 12% setting was chosen because this intensity typically gives a robust increase in the number of LR5 responders.
Total Responder speeds, ‘LR1 Responder speeds’ and ‘LR5 Responder speeds’ are shown as normalized speeds to allow better comparison between samples. For normalization purposes the average pre-laser speed is set at 1.0 and responder speeds are calculated relative to this value.
One 24 well microtiter plate was set up and incubated overnight on the shaker at 20° C. Each well on the plate was set up with 600 L3/L4-stage N2 animals in NGM with a 1:20 dilution of concentrated HB101 E. coli (food source) in a volume of 300 μl. […]

C. elegans [2] = assay: Thermal avoidance (TAV) single intensity testing (6% laser intensity)
Procedure: One 24 well microtiter plate was set up and incubated overnight on the shaker at 20° C. Each well on the plate was set up with 600 L3/L4-stage N2 animals in NGM with a 1:20 dilution of concentrated HB101 E. coli (food source) in a volume of 300 μl. Before the animal/HB101 solution was added, test compounds were pipetted into wells. 3 μl each for the DMSO controls and LA dilutions were added to each well (1:100 dilutions). Controls and LA dilutions were done in triplicate (total of 9 wells).
6% Response tests—setup: All 9 wells from the 24 well plate were used for 6% testing and the entire well contents (600 animals) were used for each test. Prior to being placed on the agar plate for TAV testing each sample was processed as described for ‘Dose Responses’.
Dose Responses—general notes on analysis: Analysis similar as described in ‘Dose Responses’. In addition, ‘Response ratios’ as well as ‘A Speed responses’ both give measures of how much individual animals changed speed in response to the stimulus (additional information available upon request).
One 24 well microtiter plate was set up and incubated overnight on the shaker at 20° C. Each well on the plate was set up with 600 L3/L4-stage N2 animals in NGM with a 1:20 dilution of concentrated HB101 E. coli (food source) in a volume of 300 μl. Before the animal/HB101 solution was added, test compounds were pipetted into wells. 6 μl each for the water controls and compound dilutions were added to each well (1:50 dilutions). Controls and compound dilutions were done in triplicate (total of 15 wells).
6% Response tests—setup: All 15 wells from the 24 well plate were used for 6% testing) and the entire well contents (600 animals) were used for each test. Prior to being placed on the agar plate for TAV testing each sample was processed as described for ‘Dose Responses’.
One 24 well microtiter plate was set up and incubated overnight on the shaker at 20° C. Each well on the plate was set up with 600 L3/L4-stage N2 animals in NGM with a 1:20 dilution of concentrated HB101 E. coli (food source) in a volume of 300 μl. Before the animal/HB101 solution was added, test compounds were pipetted into wells. 3 μl each for the DMSO controls and LC dilutions were added to each well (1:100 dilutions). Controls and LC dilutions were done in triplicate (total of 9 wells).

C. elegans [3] = assay: Visual scoring of C. elegans after overnight incubation with compound in 24 well plate; conditions: for visual scoring of well clearance: L3/L4-stage N2 animals
Procedure: as §1
One 24 well microtiter plate was set up and incubated overnight on the shaker at 20° C. Each well on the plate was set up with 600 L3/L4-stage N2 animals in NGM with a 1:20 dilution of concentrated HB101 E. coli (food source) in a volume of 300 μl. Before the animal/HB101 solution was added, test compounds were pipetted into wells. For DMSO controls and compound stocks/dilutions in DMSO (LC) 3 μl was added to each well (1:100 dilutions). No OD620 measurements were taken but the animals were visually scored after 19 h incubation).
One 24 well microtiter plate was set up and incubated overnight on the shaker at 20° C. Each well on the plate was set up with 600 L3/L4-stage N2 animals in NGM with a 1:20 dilution of concentrated HB101 E. coli (food source) in a volume of 300 μl. Before the animal/HB101 solution was added, test compounds were pipetted into wells. For DMSO controls and compound stocks/dilutions in DMSO (LC) 3 μl was added to each well (1:100 dilutions). No OD620 measurements were taken but the animals were visually scored after 22 h incubation).

[4] = even at highest concentration 2 mM (LC)

| Molecule | effects indicating increased sensory sensitivity (C. elegans [1]; [4]) | effects indicating increased sensory sensitivity (C. elegans [2]; [4]) | visual scoring (toxicity) (C. elegans [3]; LC, 22 h incubation) | visual scoring (toxicity) (C. elegans [3]; all LC dilutions LC1-LC6 (up to 2 mM), 19 h incubation) | effects indicating increased sensory sensitivity (C. elegans [1]; even at highest non-toxic concentration of 2 mM) | speed of LR1 responders (C. elegans [1]; LA3 dilution) | percentage of LR5 responders (C. elegans [1]; dilutions LA4, LA5 and LA6, similar to the last DMSO control) | toxicity evident from 'Frames viewed' and 'Average Speeds' (C. elegans [1]; two highest LA concentrations (LA1, LA2)) | effects indicating increased sensory sensitivity (C. elegans [2]; 2 mM or 1 mM) | visual scoring of well clearance (C. elegans [3]; LA1, 10 mM final concentration in well, 19 h incubation) | visual scoring of well clearance (C. elegans [3]; LA2, 5 mM final concentration in well, 19 h incubation) |
| --- | --- | --- | --- | --- | --- | --- | --- | --- | --- | --- | --- |
| Acetyl-L-Carnitine-Lipoic acid conjugate [LC Conjugate] | No obvious effects detected | No obvious effects detected | no toxicity observed | no toxicity observed | – | – | – | – | – | – | – |
| O=C(O)CCCCC1CCSS1 (centres unmarked) [LA, Lipoic acid] | – | – | – | – | No obvious effects detected | relatively low | relatively high | toxicity is observed | No effects detected | most bacteria remaining | some bacteria remaining |
